Measurements published in article PMC9569988 (International Journal of Molecular Sciences, 2022).
Where “and” joins values, the source holds several entries; their conditions need not be identical. Equal values may be shown once. Entries after “also recorded” stand apart in the source; their conditions may differ.

Columns and labels:
SADS-CoV [1] = assay: microbe, parasite or virus in culture; type: cell-based; details: Swine acute diarrhea syndrome coronavirus, Huh-7
SADS-CoV [2] = type: cell-based, Swine acute diarrhea syndrome coronavirus
SADS-CoV [3] = type: cell-based, Swine acute diarrhea syndrome coronavirus; remark: listed apart in the source
SADS-CoV [4] = type: cell-based, Swine acute diarrhea syndrome coronavirus; remark: listed apart in the source
SADS-CoV [5] = type: cell-based, Swine acute diarrhea syndrome coronavirus; remark: listed apart in the source
SADS-CoV [6] = assay: microbe, parasite or virus in culture; type: cell-based, Swine acute diarrhea syndrome coronavirus; details: for inhibition at 10 µM: Swine acute diarrhea syndrome coronavirus, Huh-7, read-out: inhibition rate of SADS-CoV viral replication (qPCR)
SADS-CoV [7] = type: cell-based, Swine acute diarrhea syndrome coronavirus; remark: listed apart in the source
in vitro = details: human
SADS-CoV [8] = type: cell-based, Swine acute diarrhea syndrome coronavirus; remark: listed apart in the source
[9] = tested on: SADS-CoV nucleocapsid protein; type: cell-based, Swine acute diarrhea syndrome coronavirus

| SMILES | EC50 (SADS-CoV [1]) | virus RNA level in the supernatant when added after virus entry (SADS-CoV [2]) | effect on virus internalization (SADS-CoV [3]) | viral titers in the supernatant (infectious progeny) (SADS-CoV [4]) | decrease of viral RNA expression in the cells (SADS-CoV [5]) | CPE inhibition in SADS-CoV infection (SADS-CoV [6]) | inhibition at 10 µM (SADS-CoV [6]) | SADS-CoV titer (TCID50) at 24 hpi (SADS-CoV [7]) | CC50 (in vitro) | effect on virus binding compared with positive control (SADS-CoV [8]) | decrease of viral RNA in the supernatant (SADS-CoV [2]) | CC50 (Huh7 cells) | expression of viral proteins in cells (immunoblot) [9] | decrease of SADS-CoV RNA in binding assay (SADS-CoV [8]) | reduction of viral RNA compared with the positive control (SADS-CoV [2]) | viral RNA decrease (SADS-CoV [2]) |
| --- | --- | --- | --- | --- | --- | --- | --- | --- | --- | --- | --- | --- | --- | --- | --- | --- |
| COc1ccc2cc1Oc1ccc(cc1)C[C@H]1c3c(cc4c(c3Oc3cc5c(cc3OC)CCN(C)[C@@H]5C2)OCO4)CCN1C [Cepharanthine] | 0.789 µM | could not inhibit SADS-CoV replication | less function | at the ”Entry” stage could reduce infectious progeny | 72.9% and 57.5% | significantly exhibited CPE inhibitions | > 60% | viral titer was decreased; also recorded: also effective; also recorded: showed a reduction in SADS-CoV viral progeny | 16.2 µM |  |  |  |  |  |  |  |
| Nc1ccn([C@@H]2O[C@H](CO)[C@@H](O)C2(F)F)c(=O)n1 [Gemcitabine] | 0.117 µM |  | no statistically significant difference | exhibited inhibitory effects only when they were added after viral entry | less remarkable differences | significantly exhibited CPE inhibitions | > 60% |  | 88.5 µM | no statistically significant difference | 1.8 log | low cytotoxicity | inhibition effect |  |  |  |
| CN(C)c1ccc2nc3ccc(=[N+](C)C)cc-3sc2c1 [Methylene blue] | 0.217 µM |  | no distinct effect | strong inhibitory activity against viral replication during both periods |  | significantly exhibited CPE inhibitions | > 60% | inhibit SADS-CoV infection; also recorded: inhibition effect got better | > 25 µM |  |  | low cytotoxicity | inhibition of viral protein expression | 78.5% and 88.5% | 2- to 3 log | 3 log |
| COc1c(C)c2c(c(O)c1C/C=C(\C)CCC(=O)OCCN1CCOCC1)C(=O)OC2 [Mycophenolate mofetil] | 1.7 µM |  | no statistically significant difference | exhibited inhibitory effects only when they were added after viral entry | 91.5% and 65.8% | significantly exhibited CPE inhibitions | > 60% |  | > 100 µM | no statistically significant difference | 0.5 log | low cytotoxicity | inhibition effect |  |  |  |
| COc1c(C)c2c(c(O)c1C/C=C(\C)CCC(=O)O)C(=O)OC2 [Mycophenolic acid] | 0.56 µM |  | no statistically significant difference | exhibited inhibitory effects only when they were added after viral entry | 96.7% and 93.9% | significantly exhibited CPE inhibitions | > 60% |  | > 100 µM | no statistically significant difference | 0.9 log | low cytotoxicity | inhibition effect |  |  |  |
